{
  "source": "patent US20120074014A1",
  "about": "“PRODUCT TYPICALLY BASED ON SALT OF PEROXYMONOSULFURIC ACID AND SUITABLE FOR MEDICINAL USAGE, AND ASSOCIATED PRODUCT FABRICATION” (LuTran Industries, Inc., priority 2010, published 2012)",
  "key": {"osteoarthritis": {"test_system": "osteoarthritis", "assay": "Example B: case treatment of osteoarthritis, complete-body immersion", "assay_type": "in vivo, human", "settings": "earlier treatment tried by the patient; patient report", "text": "(§1) Given below are examples of using the medicinal drug of type I/II for treating allergic rhinitis, osteoarthritis, gouty arthritis, bronchitis, hemorrhoids, urticaria, toothache, tinea pedis, acute viral nasopharyngitis, herpes simplex, dandruff, itching, bromhidrosis, and vaginitis. The formulation of the drug of type I/II used in these examples was the preferred formulation, mentioned above, in which the drug was formed with potassium hydrogen peroxymonosulfate as the active oxygen-releasing material, sodium chloride as the inorganic halide, sodium hexametaphosphate as the alkali metal phosphate, sulfamic acid, malic acid as the non-reducing organic acid, and sodium dodecylbenzene sulfonate as the surfactant at approximately the typical mass percentages mentioned above. A formulation approximating this formulation is commercially available in the product Virkon. This formulation of the drug of type I/II is referred to below as the “Medicine”. […]"}, "dandruff": {"test_system": "dandruff", "assay": "Example K: case treatment of dandruff, scalp scrubbing", "assay_type": "in vivo, human", "settings": "earlier treatment tried by the patient; (some of) these decreased the amount of dandruff; patient report", "text": "Given below are examples of using the medicinal drug of type I/II for treating allergic rhinitis, osteoarthritis, gouty arthritis, bronchitis, hemorrhoids, urticaria, toothache, tinea pedis, acute viral nasopharyngitis, herpes simplex, dandruff, itching, bromhidrosis, and vaginitis. […] A formulation approximating this formulation is commercially available in the product Virkon. This formulation of the drug of type I/II is referred to below as the “Medicine”.\nThe Medicine for each person infected with allergic rhinitis, osteoarthritis, gouty arthritis, bronchitis, hemorrhoids, urticaria, toothache, tinea pedis, acute viral nasopharyngitis, herpes simplex, dandruff, itching, bromhidrosis, and vaginitis is provided for topical, intranasal, oral, or/and injection administration 1-12 times per day, preferably 1-8 times per day, more preferably 1-6 times per day, typically 1-4 times per day, in liquid form at a dosage of 0.00001-5%, preferably 0.001-3%, more preferably 0.1-2%, typically 0.5-1%, for a time of contact of 1 minute-12 hours, preferably 1 minute-6 hours, more preferably 1 minute-2 hours, typically 1-30 minutes.\nThe Medicine was provided to […] as a 1% solution for topical administration by scrubbing the Medicine into their scalp and hair for 5 minutes and then washing their scalp and hair. The […] reported that they administered the Medicine to themself in the foregoing manner 4 times a week for 2 weeks."}, "vaginitis": {"test_system": "vaginitis", "assay": "Example N: case treatment of vaginitis, vaginal immersion", "assay_type": "in vivo, human", "settings": "earlier treatment tried by the patient; patient report", "text": "as §1"}, "poliovirus": {"test_system": "poliovirus", "settings": "Sporkenbach, U.S. Pat. No. 4,404,191; cited from earlier work"}, "coxsackie virus": {"test_system": "coxsackie virus", "settings": "Sporkenbach, U.S. Pat. No. 4,404,191; cited from earlier work"}, "[1]": {"test_system": "simian vacuolating virus 40", "settings": "Sporkenbach, U.S. Pat. No. 4,404,191; cited from earlier work"}, "adenovirus": {"test_system": "adenovirus", "settings": "Sporkenbach, U.S. Pat. No. 4,404,191; cited from earlier work"}, "[2]": {"settings": "cited from earlier work"}},
  "note": "Read-outs that look alike come from different tables or passages of the source.",
  "data": [
    {"compound": "N[C@H]1C(O)O[C@H](CO)[C@@H](O)[C@@H]1O", "note": "(some centres unmarked) [glucosamine]", "values": [
      {"measurement": "relief of osteoarthritis by earlier treatments", "setting": "osteoarthritis", "value": "without effective relief"}
    ]},
    {"compound": "zinc pyrithione", "values": [
      {"measurement": "dandruff after earlier treatments", "setting": "dandruff", "value": "still visible"}
    ]},
    {"compound": "C[C@]12CCC(=O)C=C1CC[C@@H]1[C@@H]2[C@@H](O)C[C@@]2(C)[C@H]1CC[C@]2(O)C(=O)CO", "note": "[hydrocortisone]", "values": [
      {"measurement": "success of earlier treatments for vaginitis", "setting": "vaginitis", "value": "without significant success"}
    ]},
    {"compound": "CC(=O)N1CCN(c2ccc(OCC3COC(Cn4ccnc4)(c4ccc(Cl)cc4Cl)O3)cc2)CC1", "note": "(centres unmarked) [ketoconazole]", "values": [
      {"measurement": "dandruff after earlier treatments", "setting": "dandruff", "value": "still visible"}
    ]},
    {"compound": "S=[Se]=S", "note": "[selenium sulfide]", "values": [
      {"measurement": "dandruff after earlier treatments", "setting": "dandruff", "value": "still visible"}
    ]},
    {"compound": "O=S(=O)([O-])OO.[K+]", "note": "[potassium hydrogen peroxymonosulfate]", "values": [
      {"measurement": "inactivation of poliovirus", "setting": "poliovirus", "value": "inactivated"},
      {"measurement": "inactivation of coxsackie virus", "setting": "coxsackie virus", "value": "inactivated"},
      {"measurement": "inactivation of simian vacuolating virus 40", "setting": "[1]", "value": "inactivated"},
      {"measurement": "inactivation of adenovirus", "setting": "adenovirus", "value": "inactivated"}
    ]},
    {"compound": "potassium monopersulfate triple salt", "values": [
      {"measurement": "loss of active oxygen content per month", "setting": "[2]; anhydrous solid, reported in Tufano", "value": "roughly 1%"},
      {"measurement": "loss of active oxygen content per month", "setting": "[2]; solutions (solvent presumably high-purity water), Tufano and Durante", "value": "3-5%"}
    ]}
  ]
}
